Test results as given in ChEMBL document CHEMBL1201862, “PubChem BioAssay data set” (2004).
Active and inactive are the calls of the source.

Experiments:
[1] = molecular target: DNA dC->dU-editing enzyme APOBEC-3A (Homo sapiens, UniProt P31941); experiment: APOBEC3A DNA deaminase inhibitors, dose response, biochemical (AID 504722); type: functional
[2] = molecular target: Glucose-6-phosphate 1-dehydrogenase (Homo sapiens, UniProt P11413); experiment: human G6PD enzyme inhibitors, dose response, selectivity assay for P. falciparum G6PD inhibitor project, biochemical, fluorescence (AID 504792); type: functional
Hexokinase HKDC1 = Hexokinase HKDC1 (Homo sapiens, UniProt Q2TB90); experiment: HKDC1 hexokinase activators, dose response, biochemical, W721R variant (AID 504730); type: functional
[3] = molecular target: DNA dC->dU-editing enzyme APOBEC-3G (Homo sapiens, UniProt Q9HC16); experiment: Dose Response confirmation of small molecule APOBEC3G DNA Deaminase Inhibitors via a fluorescence-based single-stranded DNA deaminase assay. [Related pubchem assays (depositor defined):AID493012, AID493028]; type: functional
Hexokinase-1 = Hexokinase-1 (Homo sapiens, UniProt P19367); experiment: hexokinase 1 activators, dose response, selectivity assay for HKDC1 activator project, biochemical (AID 504762); type: functional
Genome polyprotein = Genome polyprotein (dengue virus type 2, UniProt P29990); experiment: Dengue-2 NS5 methyltransferase inhibitors, primary screen, biochemical, confirmation dose response (AID 588689); type: functional
[4] = human group III sPLA2 inhibitors, dose response, biochemical, QFRET, IC50 (AID 743457);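 further: green fluorescence rise as the enzyme cleaves BODIPY PC-A2 in liposomes; potency for inhibition of the enzyme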
[5] = molecular target: Dual specificity tyrosine-phosphorylation-regulated kinase 1A (Rattus norvegicus, UniProt Q63470); type: biochemical, Homo sapiens
[6] = NIH-3T3 fibroblast cytotoxicity, dose response, cytotoxicity control, cell-based, fluorescence, Alamar Blue, secondary assay (AID 2327); type: functional;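 further: NIH-3T3 mouse fibroblasts cultured with fluconazole at 8 µg/mL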
[7] = C. albicans growth with fluconazole, confirmation, fluorescence, retest (AID 2467); type: functional, cell-based
[8] = molecular target: Serine/threonine-protein phosphatase (Candida dubliniensis (strain CD36 / CBS 7987 / NCPF 3949 / NRRLY-17841) (Yeast), UniProt B9W6M3); experiment: calcineurin pathway inhibitors in yeast reporter, dose response, S. cerevisiae, CDRE-lacZ, luminescence, secondary (AID 2388); type: functional, cell-based;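 further: yeast reporter cells carrying a calcineurin-responsive lacZ construct stimulated with calcium chloride; luminescent beta-galactosidase reporter signal in whole cells rather than isolated phosphatase activity; potency for inhibition where a drop in reporter signal means calcineurin blockade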
[9] = molecular target: ATP-dependent molecular chaperone HSP82 (Candida albicans (strain WO-1) (Yeast), UniProt C4YTQ8); experiment: loss of DOC-induced GRE-beta-galactosidase reporter signal, dose response, Hsp90 inhibitor project, S. cerevisiae, luminescence (AID 2400); type: functional, cell-based;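 further: beta-galactosidase luminescence from glucocorticoid response element reporter as proxy for Hsp90 function; inhibitor potency where signal loss means Hsp90 inhibition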
[10] = molecular target: Latent membrane protein 1 (Human herpesvirus 4 (strain B95-8), UniProt P03230); experiment: TES1-eGFP NF-kB reporter inhibition versus Tet-On dsRED, dose response, selectivity assay for LMP1 NF-kB inhibitor project, imaging, HEK293T, dual-color eGFP/dsRED, cherry-picks (AID 588398); type: functional, cell-based
[11] = THP-1 cell cytotoxicity, dose response, cytotoxicity control for non-replicating M. tuberculosis project (AID 489025); type: functional
[12] = Luminescence Cell-Based Dose Retest to Confirm Inhibitors of Cancer Stem Cells. [Related pubchem assays (depositor defined):AID2717, AID2721]; type: functional; conditions: Homo sapiens
[13] = Vero E6 cell cytotoxicity, dose response, cytotoxicity control for non-replicating M. tuberculosis project, secondary assay (AID 492998); type: functional, VeroE6; conditions: Vero C1008
[14] = molecular target: T1, Heat shock factor protein 1 (Mus musculus, UniProt P38532); experiment: HSF1 potentiators in luciferase reporter cells, confirmation, cell-based, NIH3T3, luminescence, dose retest (AID 435004); type: functional;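 further: stress induced by proteasome inhibitor MG132 added 30 min after compound; luciferase reporter driven by HSF1 response element in NIH3T3 cells; actives raise luminescence as potentiators of the MG132 stress response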
T1 sequence (P38532 whole entry): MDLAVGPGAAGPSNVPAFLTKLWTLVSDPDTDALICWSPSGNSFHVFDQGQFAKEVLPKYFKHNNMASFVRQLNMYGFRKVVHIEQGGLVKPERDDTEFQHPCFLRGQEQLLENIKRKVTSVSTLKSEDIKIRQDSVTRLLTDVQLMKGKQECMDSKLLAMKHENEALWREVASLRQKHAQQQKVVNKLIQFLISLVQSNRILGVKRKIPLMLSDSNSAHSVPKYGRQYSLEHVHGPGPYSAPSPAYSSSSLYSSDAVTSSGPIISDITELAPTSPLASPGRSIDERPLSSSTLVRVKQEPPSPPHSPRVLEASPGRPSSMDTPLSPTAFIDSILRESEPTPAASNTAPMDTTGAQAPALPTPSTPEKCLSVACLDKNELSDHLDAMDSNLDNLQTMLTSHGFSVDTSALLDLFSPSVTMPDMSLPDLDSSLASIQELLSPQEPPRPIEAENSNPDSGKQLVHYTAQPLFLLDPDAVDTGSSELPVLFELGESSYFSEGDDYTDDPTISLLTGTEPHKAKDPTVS

cells = type: functional
CHO = experiment: cytotoxicity in TLR9-MyD88 CHO cells, dose response, cytotoxicity control for TLR9-MyD88 binding inhibitor project, cell-based, luminescence (AID 588339); type: functional, hamster; conditions: Cricetulus griseus;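 further: CHO cells stably coexpressing TLR9 and MyD88 fusions from primary screen; compound exposure lasted 48 hours before viability readout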
[15] = molecular target: Heat shock protein HSP 90-alpha (Homo sapiens, UniProt P07900); type: functional, organism-based
Beta Lactamase = Beta Lactamase (Pseudomonas aeruginosa, UniProt Q932Y6); experiment: beta-lactamase reporter inhibitor potency, dose response, artefact control for TLR9-MyD88 binding inhibitor project, BLA reporter cells, FRET fluorescence (AID 588341); type: cell-based;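 further: cell based assay in CHO-K1 cells stably expressing beta-lactamase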
[16] = Fluorescence-based cell-based high throughput dose response assay for inhibitors of the interaction of nucleotide-binding oligomerization domain containing 2 (NOD2) and the receptor-interacting serine-threonine kinase 2 (RIPK2).; type: functional; conditions: Homo sapiens
[17] = inhibitors of intracellular T. cruzi replication, confirmation, NIH3T3 host cells, beta-gal luminescence (AID 2044); type: functional, cell-based;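 further: intracellular parasites grown in NIH/3T3 mouse fibroblasts as host cells; luminescent beta-galactosidase reporter signal from transgenic T. cruzi replicating inside host cells; inhibitors lower the luminescence signal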
[18] = cytotoxicity toward NIH3T3 fibroblasts, dose response, counter-screen, cell-based, ATP luminescence, mouse fibroblasts (AID 2010); type: functional;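 further: cells exposed to compound for about 90 hours before reading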
INS1 = experiment: beta cell apoptosis inhibitors, cytokine rescue, dose response, luminescence, retest (AID 449756); type: functional, cell-based; conditions: Rattus norvegicus;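 further: cell death triggered by IL-1 beta plus TNF-alpha plus IFN-gamma mixture; protective hits raise ATP signal compared with cytokine alone wells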
HEK293 = experiment: inhibitors of LMP1-driven NF-kB reporter, dose response, cell-based, HEK293, luciferase, cherry-pick (AID 588343); type: functional; conditions: Homo sapiens
[19] = molecular target: T2, Endoribonuclease toxin MazF (Escherichia coli K-12, UniProt P0AE70); experiment: MazF toxin RNase activators, dose response, biochemical, fluorescence, single-stranded RNA substrate, uHTS hits (AID 588481); type: functional
T2 sequence (P0AE70 whole entry): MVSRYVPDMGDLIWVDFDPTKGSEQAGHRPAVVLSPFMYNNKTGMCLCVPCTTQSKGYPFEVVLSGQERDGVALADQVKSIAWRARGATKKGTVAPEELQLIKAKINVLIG

[20] = molecular target: T2, Endoribonuclease toxin MazF; experiment: fluorescent RNA oligo signal without MazF, dose response, counter-screen for MazEF activator project, biochemical, fluorescence, single-stranded RNase substrate (AID 588502); type: functional
A-375 [21] = experiment: MITF: Counter assay: A375 proliferation Measured in Cell-Based System Using Plate Reader - 2084-03_Inhibitor_Dose_DryPowder_Activity. [Related pubchem assays (depositor defined):AID488944]; type: functional; conditions: Homo sapiens
HeLa = experiment: HeLa cell cytotoxicity, dose response, cytotoxicity control for MITF activator project, CellTiter-Glo luminescence, cherry-pick samples (AID 540259); type: functional, cell-based; conditions: Homo sapiens
A-375 [22] = experiment: A375 melanoma cell viability reduction, dose response, counter-screen for MITF modulator project, cherry-pick samples, set 2 (AID 540335); type: functional, cell-based; conditions: Homo sapiens
[23] = molecular target: T3, RNA-binding protein pos-1 (Caenorhabditis elegans, UniProt G5EF15); experiment: inhibitors of POS-1/mex-3 RNA binding, dose response, biochemical, fluorescence polarization (AID 1964);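 further: purified POS-1 fused to maltose binding protein made in E. coli; potency of compounds blocking POS-1 binding to fluorescent RNA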
T3 sequence (G5EF15 whole entry): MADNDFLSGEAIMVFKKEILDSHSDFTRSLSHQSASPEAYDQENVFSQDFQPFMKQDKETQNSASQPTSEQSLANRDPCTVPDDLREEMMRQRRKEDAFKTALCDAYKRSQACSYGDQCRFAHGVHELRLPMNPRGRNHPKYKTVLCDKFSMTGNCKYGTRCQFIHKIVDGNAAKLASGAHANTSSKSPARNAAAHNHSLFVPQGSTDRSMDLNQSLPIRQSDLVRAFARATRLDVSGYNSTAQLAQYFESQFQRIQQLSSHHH

[24] = molecular target: T4, Zinc finger protein mex-5 (Caenorhabditis elegans, UniProt Q9XUB2); experiment: MEX-5/TCR-2 RNA interaction inhibitors, dose response, biochemical, C. elegans, fluorescence polarization (AID 1960)
T4 sequence (Q9XUB2 whole entry): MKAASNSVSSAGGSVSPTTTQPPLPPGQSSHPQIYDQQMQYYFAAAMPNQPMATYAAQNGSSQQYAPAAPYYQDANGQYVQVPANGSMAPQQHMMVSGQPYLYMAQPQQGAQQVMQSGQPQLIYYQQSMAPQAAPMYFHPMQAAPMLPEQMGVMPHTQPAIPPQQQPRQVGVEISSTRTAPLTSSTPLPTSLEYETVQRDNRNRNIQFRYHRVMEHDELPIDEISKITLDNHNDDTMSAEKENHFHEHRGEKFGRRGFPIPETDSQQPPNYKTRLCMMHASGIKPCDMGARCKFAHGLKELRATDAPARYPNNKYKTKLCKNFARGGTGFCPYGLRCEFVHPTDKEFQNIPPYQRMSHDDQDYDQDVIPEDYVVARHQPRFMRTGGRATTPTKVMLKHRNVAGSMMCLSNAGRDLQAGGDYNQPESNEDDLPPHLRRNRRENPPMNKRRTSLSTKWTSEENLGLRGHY

Caspase-6 = molecular target: T5, Caspase-6 (Homo sapiens, UniProt P55212); experiment: human caspase-6 inhibitors, dose response, biochemical, VEID-R110 fluorescence, cherry-pick (AID 720632)
T5 sequence (P55212 whole entry): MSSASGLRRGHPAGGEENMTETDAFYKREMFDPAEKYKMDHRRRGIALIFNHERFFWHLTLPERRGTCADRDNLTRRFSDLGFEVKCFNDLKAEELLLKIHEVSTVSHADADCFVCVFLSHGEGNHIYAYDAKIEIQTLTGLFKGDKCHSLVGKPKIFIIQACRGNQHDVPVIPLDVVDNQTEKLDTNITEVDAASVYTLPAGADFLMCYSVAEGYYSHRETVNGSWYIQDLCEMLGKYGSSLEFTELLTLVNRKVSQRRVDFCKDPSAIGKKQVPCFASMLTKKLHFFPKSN

Chain of ATP-dependent molecular chaperone HSP82 (C4YTQ8 whole entry): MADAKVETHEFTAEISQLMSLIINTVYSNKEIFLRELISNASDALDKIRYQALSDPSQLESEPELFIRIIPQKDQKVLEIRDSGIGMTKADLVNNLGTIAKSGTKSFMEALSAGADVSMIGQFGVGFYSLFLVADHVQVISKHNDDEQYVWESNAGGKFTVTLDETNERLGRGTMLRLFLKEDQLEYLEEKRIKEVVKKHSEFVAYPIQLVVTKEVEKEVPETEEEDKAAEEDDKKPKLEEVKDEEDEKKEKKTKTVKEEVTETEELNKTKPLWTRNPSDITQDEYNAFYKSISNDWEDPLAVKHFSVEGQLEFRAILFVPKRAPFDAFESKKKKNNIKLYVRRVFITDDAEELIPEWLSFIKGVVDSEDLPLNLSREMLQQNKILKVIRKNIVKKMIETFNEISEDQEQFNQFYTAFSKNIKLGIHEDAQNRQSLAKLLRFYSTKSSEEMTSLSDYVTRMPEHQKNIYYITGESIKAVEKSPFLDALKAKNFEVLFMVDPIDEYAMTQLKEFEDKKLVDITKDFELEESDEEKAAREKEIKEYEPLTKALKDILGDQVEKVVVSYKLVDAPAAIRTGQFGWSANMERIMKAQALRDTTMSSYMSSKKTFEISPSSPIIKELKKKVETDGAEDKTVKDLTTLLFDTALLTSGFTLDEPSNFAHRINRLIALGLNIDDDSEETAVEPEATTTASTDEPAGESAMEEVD
Chain of Beta Lactamase (Q932Y6 whole entry, the tested form may be a part): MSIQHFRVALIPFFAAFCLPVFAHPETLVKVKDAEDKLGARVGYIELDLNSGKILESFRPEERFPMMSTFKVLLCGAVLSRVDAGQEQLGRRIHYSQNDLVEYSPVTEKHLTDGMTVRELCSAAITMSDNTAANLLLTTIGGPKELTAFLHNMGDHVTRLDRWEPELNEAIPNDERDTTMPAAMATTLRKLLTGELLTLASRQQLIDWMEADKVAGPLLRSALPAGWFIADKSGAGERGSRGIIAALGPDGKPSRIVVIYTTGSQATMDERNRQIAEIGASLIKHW
Chain of Latent membrane protein 1 (P03230 whole entry): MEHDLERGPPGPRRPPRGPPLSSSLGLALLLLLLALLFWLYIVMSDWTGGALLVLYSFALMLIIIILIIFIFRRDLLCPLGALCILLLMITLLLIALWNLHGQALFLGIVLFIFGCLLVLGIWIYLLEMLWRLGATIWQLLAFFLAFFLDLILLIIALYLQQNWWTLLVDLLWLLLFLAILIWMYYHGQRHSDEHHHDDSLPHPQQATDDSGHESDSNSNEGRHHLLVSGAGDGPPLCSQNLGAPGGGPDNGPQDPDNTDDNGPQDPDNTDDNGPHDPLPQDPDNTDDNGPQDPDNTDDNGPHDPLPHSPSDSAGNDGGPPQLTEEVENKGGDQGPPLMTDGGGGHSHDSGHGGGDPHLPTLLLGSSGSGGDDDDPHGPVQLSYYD
Chain of Serine/threonine-protein phosphatase (B9W6M3 whole entry): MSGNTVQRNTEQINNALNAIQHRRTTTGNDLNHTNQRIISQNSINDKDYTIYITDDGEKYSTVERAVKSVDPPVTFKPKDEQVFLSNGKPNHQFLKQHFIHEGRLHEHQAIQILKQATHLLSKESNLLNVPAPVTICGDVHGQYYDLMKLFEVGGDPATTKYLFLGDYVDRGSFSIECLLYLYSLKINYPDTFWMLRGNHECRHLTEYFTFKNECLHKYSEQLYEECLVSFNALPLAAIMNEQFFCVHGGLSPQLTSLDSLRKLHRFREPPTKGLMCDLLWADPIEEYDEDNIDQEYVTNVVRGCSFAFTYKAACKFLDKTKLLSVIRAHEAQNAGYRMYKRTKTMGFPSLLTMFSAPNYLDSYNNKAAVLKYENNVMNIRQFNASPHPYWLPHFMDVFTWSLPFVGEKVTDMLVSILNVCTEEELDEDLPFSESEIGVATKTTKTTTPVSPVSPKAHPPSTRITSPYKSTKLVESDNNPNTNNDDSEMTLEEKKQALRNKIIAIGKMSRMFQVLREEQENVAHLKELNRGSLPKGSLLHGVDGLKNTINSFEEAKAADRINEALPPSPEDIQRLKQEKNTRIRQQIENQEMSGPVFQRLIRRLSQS
Chain of Glucose-6-phosphate 1-dehydrogenase (P11413 whole entry): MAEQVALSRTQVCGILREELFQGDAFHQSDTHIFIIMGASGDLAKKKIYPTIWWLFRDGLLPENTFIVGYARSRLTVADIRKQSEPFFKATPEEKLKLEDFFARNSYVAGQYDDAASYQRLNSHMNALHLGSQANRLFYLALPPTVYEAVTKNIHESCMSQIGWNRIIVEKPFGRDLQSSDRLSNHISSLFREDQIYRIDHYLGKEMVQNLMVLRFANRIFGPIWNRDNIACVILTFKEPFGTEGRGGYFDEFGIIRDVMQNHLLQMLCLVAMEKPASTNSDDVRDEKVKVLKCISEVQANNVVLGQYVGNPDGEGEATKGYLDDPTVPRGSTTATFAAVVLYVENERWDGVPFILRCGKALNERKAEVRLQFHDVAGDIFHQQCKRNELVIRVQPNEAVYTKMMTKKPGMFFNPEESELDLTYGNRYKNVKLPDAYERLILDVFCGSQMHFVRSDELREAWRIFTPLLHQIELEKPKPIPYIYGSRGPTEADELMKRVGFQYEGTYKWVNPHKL
Chain of DNA dC->dU-editing enzyme APOBEC-3A (P31941 whole entry): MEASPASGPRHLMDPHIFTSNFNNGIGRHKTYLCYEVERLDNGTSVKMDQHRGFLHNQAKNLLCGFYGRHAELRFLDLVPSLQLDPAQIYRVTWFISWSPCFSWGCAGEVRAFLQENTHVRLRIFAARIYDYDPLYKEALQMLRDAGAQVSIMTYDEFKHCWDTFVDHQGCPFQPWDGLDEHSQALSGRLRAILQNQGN
Chain of DNA dC->dU-editing enzyme APOBEC-3G (Q9HC16 whole entry): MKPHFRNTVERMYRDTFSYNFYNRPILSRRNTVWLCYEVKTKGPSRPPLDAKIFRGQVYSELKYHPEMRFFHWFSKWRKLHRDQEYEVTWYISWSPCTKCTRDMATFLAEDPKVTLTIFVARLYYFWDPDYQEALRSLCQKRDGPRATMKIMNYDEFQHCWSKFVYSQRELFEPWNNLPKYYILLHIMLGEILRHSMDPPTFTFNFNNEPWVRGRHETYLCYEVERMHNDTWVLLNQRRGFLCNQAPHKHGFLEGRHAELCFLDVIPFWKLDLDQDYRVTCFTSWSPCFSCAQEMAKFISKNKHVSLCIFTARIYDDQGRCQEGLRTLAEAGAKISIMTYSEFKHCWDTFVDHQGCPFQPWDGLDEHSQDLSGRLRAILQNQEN
Chain of Hexokinase-1 (P19367 whole entry): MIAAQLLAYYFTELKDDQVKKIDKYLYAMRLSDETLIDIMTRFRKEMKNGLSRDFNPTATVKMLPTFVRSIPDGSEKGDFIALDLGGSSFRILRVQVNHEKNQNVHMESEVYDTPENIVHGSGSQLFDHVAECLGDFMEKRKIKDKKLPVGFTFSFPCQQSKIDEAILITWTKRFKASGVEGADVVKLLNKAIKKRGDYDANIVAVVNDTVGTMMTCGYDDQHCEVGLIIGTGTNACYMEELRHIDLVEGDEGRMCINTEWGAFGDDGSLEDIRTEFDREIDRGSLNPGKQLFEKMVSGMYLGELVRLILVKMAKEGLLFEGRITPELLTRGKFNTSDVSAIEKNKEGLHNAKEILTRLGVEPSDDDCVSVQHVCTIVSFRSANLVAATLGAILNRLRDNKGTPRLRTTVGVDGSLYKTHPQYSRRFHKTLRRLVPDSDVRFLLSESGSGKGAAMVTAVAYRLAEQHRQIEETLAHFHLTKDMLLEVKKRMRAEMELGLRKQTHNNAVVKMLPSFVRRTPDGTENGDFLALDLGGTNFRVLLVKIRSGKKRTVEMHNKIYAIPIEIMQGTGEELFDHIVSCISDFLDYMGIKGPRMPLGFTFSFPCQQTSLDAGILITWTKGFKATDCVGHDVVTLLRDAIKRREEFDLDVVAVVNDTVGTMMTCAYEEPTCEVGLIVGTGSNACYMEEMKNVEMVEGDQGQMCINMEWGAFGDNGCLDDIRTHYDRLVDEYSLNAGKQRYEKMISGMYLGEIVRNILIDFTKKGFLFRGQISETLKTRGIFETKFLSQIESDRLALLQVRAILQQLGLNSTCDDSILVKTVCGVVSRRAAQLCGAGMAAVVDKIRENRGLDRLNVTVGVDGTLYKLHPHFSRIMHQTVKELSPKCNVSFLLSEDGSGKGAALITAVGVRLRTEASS
Chain of Genome polyprotein (P29990 2492-3391 limits assumed): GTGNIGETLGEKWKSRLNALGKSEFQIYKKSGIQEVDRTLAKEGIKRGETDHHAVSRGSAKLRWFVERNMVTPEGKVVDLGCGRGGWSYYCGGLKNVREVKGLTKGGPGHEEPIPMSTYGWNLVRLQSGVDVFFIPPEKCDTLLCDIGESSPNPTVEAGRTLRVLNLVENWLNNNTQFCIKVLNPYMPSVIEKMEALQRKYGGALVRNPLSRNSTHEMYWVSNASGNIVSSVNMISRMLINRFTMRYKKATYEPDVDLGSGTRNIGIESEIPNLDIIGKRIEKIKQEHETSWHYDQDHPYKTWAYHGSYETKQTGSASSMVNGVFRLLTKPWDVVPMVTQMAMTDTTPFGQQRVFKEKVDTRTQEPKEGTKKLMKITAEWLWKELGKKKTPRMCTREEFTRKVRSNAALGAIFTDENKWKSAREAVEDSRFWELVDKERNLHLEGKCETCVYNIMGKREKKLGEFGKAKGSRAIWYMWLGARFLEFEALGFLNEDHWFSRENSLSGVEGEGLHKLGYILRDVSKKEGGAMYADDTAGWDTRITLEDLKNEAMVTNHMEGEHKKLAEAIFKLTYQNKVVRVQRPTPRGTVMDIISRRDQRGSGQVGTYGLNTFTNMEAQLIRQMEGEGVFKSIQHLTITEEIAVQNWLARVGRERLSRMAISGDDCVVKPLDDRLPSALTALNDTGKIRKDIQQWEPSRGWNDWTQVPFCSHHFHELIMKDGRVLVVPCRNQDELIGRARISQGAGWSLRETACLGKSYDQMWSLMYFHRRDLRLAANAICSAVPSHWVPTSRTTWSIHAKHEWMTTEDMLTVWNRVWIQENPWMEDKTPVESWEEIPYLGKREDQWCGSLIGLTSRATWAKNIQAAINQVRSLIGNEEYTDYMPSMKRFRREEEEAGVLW

Q: What does the source list for `COc1cc(N=c2ssnc2Cl)c(OC)cc1Cl`?
A: IC50 [1]: > 100 µM (inactive); IC50 [2]: 68.8 µM (inactive); EC50 (Hexokinase HKDC1): 27.2 µM (inactive); IC50 [3]: 8.83 µM (active); EC50 (Hexokinase-1): 41.9 µM (inactive); IC50 (Genome polyprotein): > 100 µM (active); IC50 [4]: 92.1 µM (inactive)

Q: Which AC50 [5] does the source give for `Cc1nc2c(ccc3nc(NC(=O)Cc4ccccc4)sc32)s1` here?
A: 0.73 µM (active)

Q: Which EC50 [6] does the source give for `O=C(Nc1cccc(-c2cn3ccccc3n2)c1)c1cccc(Cl)c1` here?
A: 11 µM (active)

Q: What about the EC50 [7] of the same molecule?
A: 1.05 µM (active)

Q: What about the EC50 [8] of the same molecule?
A: > 180 µM (inactive)

Q: And the EC50 [9]?
A: > 160 µM (inactive)

Q: With `COCCCNCC1C(Oc2ccc(Cl)cc2)C(=O)N1c1ccccc1C` (configuration not stated) as the molecule, how does the AC50 [10] read?
A: 28.2 µM (active)

Q: Which CC50 [11] does the source give for `C=CCN1C(=O)/C(=C2/C(=O)Nc3ccccc32)c2ccccc21` here?
A: 19.7 µM (active)

Q: What about the AC50 [12] of the same molecule?
A: 4.32 µM (active)

Q: What about the CC50 [13] of the same molecule?
A: 3.31 µM (active)

Q: And the EC50 [14]?
A: 8.91 µM (active)

Q: What about the IC50 (cells) of the same molecule?
A: 0.4 µM (active)

Q: What about the IC50 (CHO) of the same molecule?
A: 3.64 µM (active)

Q: And the AC50 [15]?
A: 1.17 µM (active)

Q: And the IC50 (Beta Lactamase)?
A: > 49.8 µM (inactive)

Q: And the IC50 [16]?
A: 2.1 µM (active)

Q: For `CCCCCCOC(=O)C[N+](C)(C)CCOC1CC2CCC1(C)C2(C)C` (configuration not stated), which EC50 [6] is on record?
A: 23.6 µM (active)

Q: What about the EC50 [7] of the same molecule?
A: 0.456 µM (active)

Q: What about the EC50 [17] of the same molecule?
A: 0.178 µM (active)

Q: What about the EC50 [8] of the same molecule?
A: > 180 µM (inactive)

Q: And the EC50 [18]?
A: > 30 µM (not active)

Q: What about the AC50 (INS1) of the same molecule?
A: 4.16 µM (active)

Q: And the EC50 [9]?
A: 30.6 µM (active)

Q: What does the source list for `Nc1nc2ccccc2n1C(=O)c1ccccc1`?
A: AC50 (HEK293): 5.38 µM (active); AC50 [10]: 108 µM (active)

Q: With `CCN(CC)c1ccc(C=NNc2ccc([N+](=O)[O-])cn2)cc1` as the molecule, how does the IC50 (CHO) read?
A: 24.3 µM (inactive)

Q: What about the EC50 [19] of the same molecule?
A: > 99 µM (inactive)

Q: And the IC50 (Beta Lactamase)?
A: 4.5 µM (active)

Q: And the EC50 [20]?
A: 70.2 µM (inactive)

Q: What does the source list for `COC(=O)c1c(C)[nH]c(/C=N/Nc2ccccc2)c1C`?
A: AC50 (A-375 [21]): > 35 µM (active); AC50 (HeLa): 103 µM (active); AC50 (A-375 [22]): > 35 µM (active)

Q: Which EC50 [23] does the source give for `Cc1cc(/C=N/Nc2ccc([N+](=O)[O-])cn2)c(C)n1-c1cccc(C(=O)O)c1` here?
A: > 300 µM (not active)

Q: What about the EC50 [24] of the same molecule?
A: 37.7 µM (active)

Q: What about the AC50 [5] of the same molecule?
A: 8.79 µM (active)

Q: What about the AC50 (Caspase-6) of the same molecule?
A: 14.4 µM (active)
